Values of other authors as cited in patent US7312207B2, “Topical steroid cream formulations” (Taro Pharmaceuticals North America, Inc., priority 2004, dated 2007).

solubility in ethyl alcohol (ethyl alcohol): moderately soluble
solubility in octanol (octanol): slightly soluble
solubility in water (water): insoluble
SMILES: C[C@@H]1C[C@H]2[C@@H]3CCC4=CC(=O)C=C[C@]4(C)[C@@]3(Cl)[C@@H](O)C[C@]2(C)[C@@]1(OC(=O)c1ccco1)C(=O)CCl [Mometasone furoate, 9(alpha), 21-Dichloro-11(beta), 17-dihydroxy-16(alpha)-methylpregna-1,4-diene-3,20 dione 17-(2-furoate)]
